From patent publication US20260355196A1, “INHIBITORS AND DEGRADERS OF PIP4K PROTEIN” (Larkspur Biosciences, Inc., priority 2023, published 2026)
Read-outs that look alike come from different tables or passages of the source. Values belong to the compound of their own block, whether it stands above or below them.

Target: T1, PIP4K2C (Homo sapiens, UniProt Q8TBX8)
T1 sequence (Q8TBX8 1-421): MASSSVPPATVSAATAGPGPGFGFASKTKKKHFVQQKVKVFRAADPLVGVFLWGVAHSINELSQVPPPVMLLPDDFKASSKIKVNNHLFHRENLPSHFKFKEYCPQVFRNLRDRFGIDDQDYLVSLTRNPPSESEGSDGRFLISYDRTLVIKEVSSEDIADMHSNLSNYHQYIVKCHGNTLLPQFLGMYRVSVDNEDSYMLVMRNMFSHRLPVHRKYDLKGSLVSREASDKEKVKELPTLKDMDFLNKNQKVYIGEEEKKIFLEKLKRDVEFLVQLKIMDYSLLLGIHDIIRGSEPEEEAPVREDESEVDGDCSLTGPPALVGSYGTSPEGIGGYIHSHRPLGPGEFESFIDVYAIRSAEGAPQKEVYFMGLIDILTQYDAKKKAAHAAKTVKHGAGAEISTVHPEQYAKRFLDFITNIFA
Assay: HiBiT PIP4K2C degradation assay in MOLT-4 cells (endogenous PIP4K2C C-terminally tagged with HiBiT)
Type: cell-based
Set-up: untagged in primary human PBMCs and monocyte-derived dendritic cells
Settings: MOLT-4, top concentration 10 micromolar
From the text: Example B-2: HiBiT PIP4K2C degradation assay
Materials: MOLT-4, a human T lymphoblast cell line (see https://www.atcc.org/products/crl-1582, herein incorporated by reference in its entirety), was genetically engineered using CRISPR-Cas9 by Synthego Corporation (Redwood City, CA) to C-terminally tag endogenous PIP4K2C with HiBiT peptide. Following clonal selection, genotype was confirmed by Sanger sequencing. MO LT-4 were maintained using RPMI-1640 medium from Gibco (Grand Island, NY, catalog number 11875-085) supplemented with 10% fetal bovine serum (FBS) from VWR (Philadelphia, PA, catalog number 97068-085). For HiBiT assays the cells were resuspended in RPMI-1640 medium without phenol read from Gibco (Grand Island, NY, catalog number 11835-030) supplemented with 10% FBS. Nano-Glo® HiBiT Lytic Assay System was purchased from Promega (Madison, WI, Catalog number N3030). Cell culture flasks and 384-well microplates were purchased from Corning (Glendale, AZ).
To study PIP4K2C degradation, 384-well plates were plated with a 10-point dose response curve, 3-fold dilution, in duplicate with a top starting concentration of 10 micromolar. Subsequently 22,500 cells were added to each well and incubated at 37 C in 5% C02 for 24 hours or 6 hours. At the end of the incubation time, cells were treated with the Nano-Glo® HiBiT Lytic Detection System following the manufacturer's instructions. Luminescence was measured with a PHERAstar FSX plate reader (BMG Labtech, Cary, NC). The Levenberg-Marquardt algorithm was used to fit a Hill equation to dose-response data to calculate DC50 values (see Table 6).

[1] = 24 hours incubation, read-out: HiBIT-degradation MOLT4 PIP4k2C 24 hours DC50
[2] = 6 hours of incubation time, rather than 24 hours, read-out: HiBIT-degradation MOLT4 PIP4k2C DC50 (6 hours, marked *)

SMILES: Cn1nc(C2CCC(=O)NC2=O)c2ccc(N3CCC(CN4CCC(NC(=O)[C@H]5CCC[C@@H](Nc6ncc(F)c(-c7cccc(-n8ccccc8=O)c7)n6)C5)CC4)CC3)cc21 (relative stereo) [Compound 332, cis-N-(1-((1-(3-(2,6-dioxopiperidin-3-yl)-1-methyl-1H-indazol-6-yl)piperidin-4-yl)methyl)piperidin-4-yl)-3-((5-fluoro-4-(3-(2-oxopyridin-1(2H)-yl)phenyl)pyrimidin-2-yl)amino)cyclohexane-1-carboxamide]
- DC50 [1]: < 500 nM

SMILES: O=C1CCC(Nc2ccc(C3CCN([C@H]4CC[C@@H](CNC(=O)[C@H]5CCC[C@@H](Nc6ncc(F)c(-c7cccc(-n8ccccc8=O)c7)n6)C5)CC4)CC3)c(F)c2)C(=O)N1 (relative stereo) [Compound 337, cis-N-((cis-4-(4-(4-((2,6-dioxopiperidin-3-yl)amino)-2-fluorophenyl)piperidin-1-yl)cyclohexyl)methyl)-3-((5-fluoro-4-(3-(2-oxopyridin-1(2H)-yl)phenyl)pyrimidin-2-yl)amino)cyclohexane-1-carboxamide]
- DC50 [1]: < 500 nM

SMILES: Cn1c(=O)n(C2CCC(=O)NC2=O)c2ccc(C3CCN(CC[C@H]4CC[C@H](C(=O)N5CCC(Nc6ncc(Cl)c(-c7cccc(-c8ccc(F)cc8)c7)n6)CC5)CC4)CC3)cc21 (relative stereo) [Compound 338, trans-3-(5-(1-(2-(4-(4-((5-chloro-4-(4′-fluoro-[1,1′-biphenyl]-3-yl)pyrimidin-2-yl)amino)piperidine-1-carbonyl)cyclohexyl)ethyl)piperidin-4-yl)-3-methyl-2-oxo-2,3-dihydro-1H-benzo[d]imidazol-1-yl)piperidine-2,6-dione]
- DC50 [1]: < 500 nM

SMILES: O=C1CCC(n2c(=O)oc3cc(N4CCN(CCC5CCN(C(=O)[C@@H]6CCC[C@H](Nc7ncc(F)c(-c8cccc(-n9ccccc9=O)c8)n7)C6)CC5)CC4)ccc32)C(=O)N1 (relative stereo) [Compound 342, cis-3-(6-(4-(2-(1-(3-((5-fluoro-4-(3-(2-oxopyridin-1(2H)-yl)phenyl)pyrimidin-2-yl)amino)cyclohexane-1-carbonyl)piperidin-4-yl)ethyl)piperazin-1-yl)-2-oxobenzo[d]oxazol-3 (2H)-yl)piperidine-2,6-dione]
- DC50 [1]: < 500 nM

SMILES: O=C1CCC(Nc2ccc(C3CCN(CCC4(O)CCN(C(=O)[C@H]5CCC[C@@H](Nc6ncc(F)c(-c7cccc(-n8ccccc8=O)c7)n6)C5)CC4)CC3)c(F)c2)C(=O)N1 (relative stereo) [Compound 348, cis-3-((3-fluoro-4-(1-(2-(1-(3-((5-fluoro-4-(3-(2-oxopyridin-1(2H)-yl)phenyl)pyrimidin-2-yl)amino)cyclohexane-1-carbonyl)-4-hydroxypiperidin-4-yl)ethyl)piperidin-4-yl)phenyl)amino)piperidine-2,6-dione]
- DC50 [1]: < 500 nM

SMILES: O=C1CCC(n2c(=O)oc3cc(C4CCN([C@H]5CC[C@H](CNC(=O)[C@H]6CCC[C@@H](Nc7ncc(F)c(-c8cccc(-n9ccccc9=O)c8)n7)C6)CC5)CC4)ccc32)C(=O)N1 (relative stereo) [Compound 349, cis-trans-N-((4-(4-(3-(2,6-dioxopiperidin-3-yl)-2-oxo-2,3-dihydrobenzo[d]oxazol-6-yl)piperidin-1-yl)cyclohexyl)methyl)-3-((5-fluoro-4-(3-(2-oxopyridin-1(2H)-yl)phenyl)pyrimidin-2-yl)amino)cyclohexane-1-carboxamide]
- DC50 [1]: < 500 nM

SMILES: O=C1CCC(Nc2ccc(N3CCN([C@H]4CC[C@H](CNC(=O)[C@H]5CCC[C@@H](Nc6ncc(F)c(-c7cccc(-n8ccccc8=O)c7)n6)C5)CC4)CC3)c(F)c2)C(=O)N1 (relative stereo) [Compound 352, cis-N-((trans-4-(4-(4-((2,6-dioxopiperidin-3-yl)amino)-2-fluorophenyl)piperazin-1-yl)cyclohexyl)methyl)-3-((5-fluoro-4-(3-(2-oxopyridin-1(2H)-yl)phenyl)pyrimidin-2-yl)amino)cyclohexane-1-carboxamide]
- DC50 [1]: < 500 nM

SMILES: O=C1CCC(n2c(=O)oc3cc(N4CCC(CCN5CCN(C(=O)[C@@H]6CCC[C@H](Nc7ncc(F)c(-c8cccc(-n9ccccc9=O)c8)n7)C6)CC5)CC4)ccc32)C(=O)N1 (relative stereo) [Compound 386, 3-(6-(4-(2-(4-(cis-3-((5-fluoro-4-(3-(2-oxopyridin-1(2H)-yl)phenyl)pyrimidin-2-yl)amino)cyclohexane-1-carbonyl)piperazin-1-yl)ethyl)piperidin-1-yl)-2-oxobenzo[d]oxazol-3 (2H)-yl)piperidine-2,6-dione]
- DC50 [2]: < 500 nM

SMILES: O=C1CC[C@@H](Nc2ccc(C3CCN([C@H]4CC[C@H](NC(=O)[C@H]5CC[C@H](Nc6ncc(F)c(-c7cccc(-n8ccccc8=O)c7)n6)CC5)CC4)CC3)c(F)c2)C(=O)N1 (single isomer, unassigned) [Compound 418]
- DC50 [2]: < 500 nM

Now from value to compound:

- DC50 [1]: < 500 nM
SMILES: O=C1CCC(n2c(=O)oc3cc(N4CCC(CN5CCC(NC(=O)[C@H]6CCC[C@@H](Nc7ncc(F)c(-c8cccc(-n9ccccc9=O)c8)n7)C6)CC5)CC4)ccc32)C(=O)N1 (relative stereo) [Compound 320, cis-N-(1-((1-(3-(2,6-dioxopiperidin-3-yl)-2-oxo-2,3-dihydrobenzo[d]oxazol-6-yl)piperidin-4-yl)methyl)piperidin-4-yl)-3-((5-fluoro-4-(3-(2-oxopyridin-1(2H)-yl)phenyl)pyrimidin-2-yl)amino)cyclohexane-1-carboxamide]

- DC50 [1]: < 500 nM
SMILES: Cn1nc(C2CCC(=O)NC2=O)c2ccc(N3CCC(N4CCC(CNC(=O)[C@H]5CCC[C@@H](Nc6ncc(F)c(-c7cccc(-n8ccccc8=O)c7)n6)C5)CC4)CC3)cc21 (relative stereo) [Compound 333, cis-N-((1′-(3-(2,6-dioxopiperidin-3-yl)-1-methyl-1H-indazol-6-yl)-[1,4′-bipiperidin]-4-yl)methyl)-3-((5-fluoro-4-(3-(2-oxopyridin-1(2H)-yl)phenyl)pyrimidin-2-yl)amino)cyclohexane-1-carboxamide]

- DC50 [1]: < 500 nM
SMILES: O=C1CCC(Nc2ccc(N3CCC(CN4CCC(NC(=O)[C@H]5CCC[C@@H](Nc6ncc(F)c(-c7cccc(-n8ccccc8=O)c7)n6)C5)CC4)CC3)c(F)c2)C(=O)N1 (relative stereo) [Compound 336, cis-N-(1-((1-(4-((2,6-dioxopiperidin-3-yl)amino)-2-fluorophenyl)piperidin-4-yl)methyl)piperidin-4-yl)-3-((5-fluoro-4-(3-(2-oxopyridin-1(2H)-yl)phenyl)pyrimidin-2-yl)amino)cyclohexane-1-carboxamide]

- DC50 [1]: < 500 nM
SMILES: O=C1CCC(n2c(=O)oc3cc(C4CCN(CCC5(O)CCN(C(=O)[C@H]6CCC[C@@H](Nc7ncc(F)c(-c8cccc(-n9ccccc9=O)c8)n7)C6)CC5)CC4)ccc32)C(=O)N1 (relative stereo) [Compound 347, cis-3-(6-(1-(2-(1-(3-((5-fluoro-4-(3-(2-oxopyridin-1(2H)-yl)phenyl)pyrimidin-2-yl)amino)cyclohexane-1-carbonyl)-4-hydroxypiperidin-4-yl)ethyl)piperidin-4-yl)-2-oxobenzo[d]oxazol-3 (2H)-yl)piperidine-2,6-dione]

- DC50 [1]: < 500 nM
SMILES: O=C1CCC(Nc2ccc(N3CCC(N4CCC(CNC(=O)[C@H]5CCC[C@@H](Nc6ncc(F)c(-c7cccc(-n8ccccc8=O)c7)n6)C5)CC4)CC3)c(F)c2)C(=O)N1 (relative stereo) [Compound 361, cis-N-((1′-(4-((2,6-dioxopiperidin-3-yl)amino)-2-fluorophenyl)-[1,4′-bipiperidin]-4-yl)methyl)-3-((5-fluoro-4-(3-(2-oxopyridin-1(2H)-yl)phenyl)pyrimidin-2-yl)amino)cyclohexane-1-carboxamide]

- DC50 [1]: < 500 nM
SMILES: O=C1CCC(Nc2ccc(N3CCC(CN4CCC(NC(=O)[C@H]5CC[C@H](Nc6ncc(F)c(-c7cccc(-n8ccccc8=O)c7)n6)CC5)CC4)CC3)c(F)c2)C(=O)N1 (relative stereo) [Compound 375, trans-N-(1-((1-(4-((2,6-dioxopiperidin-3-yl)amino)-2-fluorophenyl)piperidin-4-yl)methyl)piperidin-4-yl)-4-((5-fluoro-4-(3-(2-oxopyridin-1(2H)-yl)phenyl)pyrimidin-2-yl)amino)cyclohexane-1-carboxamide]
